Data: ChEMBL document CHEMBL4364241, “Developments in the anticancer activity of structurally modified curcumin: An up-to-date review” (Eur J Med Chem, 2019)

Tests used:
HCT-116 [1] = test: Cytotoxicity against human HCT116 Cells; type: functional, cell-based
AGS [2] = test: Cytotoxicity against human AGS Cells; type: functional, cell-based
HepG2 [3] = test: Cytotoxicity against human HepG2 Cells; type: functional, cell-based
HeLa [4] = test: Cytotoxicity against human HeLa Cells; type: functional, cell-based
MDA-MB-231 = test: Cytotoxicity against human MDA-MB-231 cells; type: functional, cell-based
MCF7 [5] = test: Cytotoxicity against human MCF7 cells; type: functional, cell-based
HT-29 [6] = test: Cytotoxicity against human HT-29 Cells; type: functional, cell-based
[7] = Cytotoxicity against mitoxantrone resistant […] cells expressing BCRP after 15 mins by fluorescence assay; type: functional, cell-based; settings: Canis lupus familiaris, MDCK2, 0.25 h
A549 [8] = test: Cytotoxicity against human A549 Cells by MTT assay; type: functional, cell-based
AGS [9] = test: Cytotoxicity against human AGS Cells by MTT assay; type: functional, cell-based
K562 = test: Cytotoxicity against human K562 Cells after 24 to 48 hrs by MTT assay; type: functional, cell-based
A549 [10] = test: Cytotoxicity against human A549 Cells after 24 to 48 hrs by MTT assay; type: functional, cell-based
SW480 = test: Cytotoxicity against human SW480 Cells after 24 to 48 hrs by MTT assay; type: functional, cell-based
KBM5 = test: Growth inhibition of human KBM5 cells relative to control; type: functional
HCT-116 [11] = test: Growth inhibition of human HCT116 cells relative to control; type: functional
HT-29 [12] = test: Cytotoxicity against human HT-29 Cells after 72 hrs by MTT assay; type: functional, cell-based; settings: HT-29, 72 h
CHO-K1 = test: Cytotoxicity against […] Cells after 72 hrs by MTT assay; type: functional, cell-based; settings: Cricetulus griseus, CHO-K1, 72 h
EA.hy 926 = test: Cytotoxicity against human EAhy926 Cells after 72 hrs by MTT assay; type: functional, cell-based; settings: EA.hy 926, 72 h
Caco-2 = test: Cytotoxicity against human Caco2 Cells after 72 hrs by MTT assay; type: functional, cell-based; settings: Caco-2, 72 h
HepG2 [13] = test: Cytotoxicity against human HepG2 Cells after 72 hrs by MTT assay; type: functional, cell-based; settings: HepG2, 72 h
HeLa [14] = test: Anticancer activity against human HeLa cells; type: functional, cell-based
HCT-116 [15] = test: Antitumor activity against human HCT116 cells after 72 hrs by FMCA method; type: functional, cell-based; settings: HCT-116, 72 h, pooled result: one value given for 5 cell lines, strains, targets or settings
SK-OV-3 = test: Cytotoxicity against human SKOV3 Cells after 48 hrs by Cell Titer Blue assay; type: functional, cell-based; settings: SK-OV-3, 48 h
SW-620 = test: Cytotoxicity against human SW620 Cells; type: functional, cell-based
A549 [16] = test: Cytotoxicity against human A549 Cells after 24 hrs by MTT assay; type: functional, cell-based; settings: A549, 24 h
MCF7 [17] = test: Cytotoxicity against human MCF7 cells by MTT assay; type: functional, cell-based
HT-29 [18] = test: Cytotoxicity against human HT-29 cells by MTT assay; type: functional, cell-based
MIA PaCa-2 = test: Cytotoxicity against human MIAPaCa2 cells by MTT assay; type: functional, cell-based
NCI-H460 = test: Cytotoxicity against human H460 cells by MTT assay; type: functional, cell-based
PANC-1 = test: Cytotoxicity against human PANC1 cells by MTT assay; type: functional, cell-based
PC-3 [19] = test: Cytotoxicity against human PC3 cells by MTT assay; type: functional, cell-based
PC-3 [20] = test: Cytotoxicity against human PC3 cells; type: functional, cell-based
NCI-H1299 = test: Cytotoxicity against human H1299 cells; type: functional, cell-based
BXPC-3 = test: Cytotoxicity against human BxPC3 cells; type: functional, cell-based
RWPE-1 = test: Cytotoxicity against human RWPE1 cells; type: functional, cell-based

**Q.** With `COc1cc(/C=C/C(=O)CC(=O)/C=C/c2ccc(OC3O[C@H](CO)[C@@H](O)[C@H](O)[C@H]3O)c(OC)c2)ccc1O` (stereo partly specified) as the compound, how does the IC50 (HCT-116 [1]) read?
**A.** The IC50 was 5.4 µM.

**Q.** What about the IC50 (AGS [2]) of the same compound?
**A.** Its IC50 is 5.86 µM.

**Q.** And the IC50 (HepG2 [3])?
**A.** The IC50 was 18.6 µM.

**Q.** What about the IC50 (HeLa [4]) of the same compound?
**A.** The IC50 was 12.5 µM.

**Q.** Which IC50 (MDA-MB-231) does the source give for `COc1ccc(OC)c(/C=C/C(=O)/C=C/c2cc(OC)ccc2OC)c1` here?
**A.** Its IC50 is 1.52 µM.

**Q.** And the IC50 (MCF7 [5])?
**A.** Its IC50 is 3.02 µM.

**Q.** What about the IC50 (HeLa [4]) of the same compound?
**A.** The IC50 was 14 µM.

**Q.** Which IC50 (HT-29 [6]) does the source give for `COc1cc(/C=C/C(=O)CC(=O)/C=C/c2ccc(OC3O[C@H](CO)[C@@H](O)[C@H](O)[C@H]3O)c(OC)c2)ccc1OC1O[C@H](CO)[C@@H](O)[C@H](O)[C@H]1O` (stereo partly specified) here?
**A.** Its IC50 is 41.6 µM.

**Q.** With `COc1cc(/C=C2\CNC/C(=C\c3ccc(O)c(OC)c3)C2=O)ccc1O` as the compound, how does the IC50 [7] read?
**A.** The IC50 was 4.3 µM.

**Q.** For `COc1cc(/C=C/C(=O)/C(CNc2ccc(S(N)(=O)=O)cc2)=C(O)/C=C/c2ccc(O)c(OC)c2)ccc1O`, which IC50 (A549 [8]) is on record?
**A.** The IC50 was 1.29 µM.

**Q.** And the IC50 (AGS [9])?
**A.** The IC50 was 10.2 µM.

**Q.** Which IC50 (K562) does the source give for `O=C(/C=C/c1c[nH]c2ccccc12)CC(=O)/C=C/c1c[nH]c2ccccc12` here?
**A.** The IC50 was 32 to 34 µM.

**Q.** And the IC50 (A549 [10])?
**A.** Its IC50 is 25 to 27 µM.

**Q.** What about the IC50 (SW480) of the same compound?
**A.** The IC50 was 7 to 9 µM.

**Q.** Which IC50 (A549 [8]) does the source give for `COc1ccc(/C=C/C(=O)/C(CNc2ccc(S(N)(=O)=O)cc2)=C(O)/C=C/c2ccc(OC)cc2)cc1` here?
**A.** The IC50 was 6.25 µM.

**Q.** And the IC50 (AGS [9])?
**A.** The IC50 was 11.9 µM.

**Q.** For `COc1cc(/C=C/C(=O)/C=C/c2ccc(OCC(=O)Nc3ccccc3)c(OC)c2)ccc1OCC(=O)Nc1ccccc1`, which “growth inhibition (GI)” value (KBM5) is on record?
**A.** Its value is 86.76%.

**Q.** And the “growth inhibition (GI)” value (HCT-116 [11])?
**A.** The value was 60.13%.

**Q.** Which results are given for `O=C(/C=C(O)/C=C/c1ccc[nH]1)/C=C/c1ccc[nH]1`?
**A.** IC50 (HT-29 [12]): 8.9 µM; IC50 (CHO-K1): 6.9 µM; IC50 (EA.hy 926): 8.3 µM; IC50 (Caco-2): 7.5 µM; IC50 (HepG2 [13]): 8.2 µM

**Q.** For `O=C(/C=C(O)/C=C/c1ccc(OCC(=O)NCC(=O)O)cc1)/C=C/c1ccc(OCC(=O)NCC(=O)O)cc1`, which IC50 (HeLa [14]) is on record?
**A.** The IC50 was 0.5 µM.

**Q.** Which IC50 (HCT-116 [15]) does the source give for `CCCC(=O)Oc1ccc(/C=C2\CN(C(=O)c3ccccc3)C/C(=C\c3ccc(OC(=O)CCC)c(OCC)c3)C2=O)cc1OCC` here?
**A.** Its IC50 is 0.19 µM.

**Q.** For `CCCC(=O)Oc1ccc(/C=C2\CN(C(C)=O)C/C(=C\c3ccc(OC(=O)CCC)c(OC)c3)C2=O)cc1OC`, which IC50 (HCT-116 [15]) is on record?
**A.** Its IC50 is 0.246 µM.

**Q.** With `COc1ccc(/C=C/C(=O)/C=C(O)/C=C/c2ccc(OC)c(O)c2)cc1O` as the compound, how does the IC50 (SK-OV-3) read?
**A.** The IC50 was 5.58 µM.

**Q.** For `O=C(/C=C(\O)c1ccccc1)c1ccccc1O` [2',beta-DIHYDROXYCHALCONE], which IC50 (HT-29 [6]) is on record?
**A.** Its IC50 is 7.5 µM.

**Q.** And the IC50 (SW-620)?
**A.** The IC50 was 14.5 µM.

**Q.** Which IC50 (A549 [16]) does the source give for `O=C(/C=C/c1ccccc1C(F)(F)F)/C=C/c1ccccc1C(F)(F)F` here?
**A.** The IC50 was 3.1 µM.

**Q.** With `CCOC(OCC)c1ccc(CC2CN(C)CC(Cc3ccc(C(OCC)OCC)cc3)C2=NO)cc1` (stereo unspecified) as the compound, how does the IC50 (MCF7 [17]) read?
**A.** Its IC50 is 0.2 µM.

**Q.** And the IC50 (A549 [8])?
**A.** Its IC50 is 0.3 µM.

**Q.** And the IC50 (HT-29 [18])?
**A.** The IC50 was 0.4 µM.

**Q.** What about the IC50 (MIA PaCa-2) of the same compound?
**A.** Its IC50 is 0.4 µM.

**Q.** What about the IC50 (NCI-H460) of the same compound?
**A.** The IC50 was 0.2 µM.

**Q.** What about the IC50 (PANC-1) of the same compound?
**A.** The IC50 was 0.4 µM.

**Q.** And the IC50 (PC-3 [19])?
**A.** Its IC50 is 0.2 µM.

**Q.** Which IC50 (PC-3 [20]) does the source give for `COc1cc(/C=C2/C(=O)/C(=C/c3cc(OC)c(OC)c(OC)c3)c3ccccc32)cc(OC)c1OC` here?
**A.** The IC50 was 0.64 µM.

**Q.** And the IC50 (NCI-H1299)?
**A.** The IC50 was 0.95 µM.

**Q.** And the IC50 (BXPC-3)?
**A.** The IC50 was 0.99 µM.

**Q.** And the IC50 (HT-29 [6])?
**A.** Its IC50 is 0.98 µM.

**Q.** What about the IC50 (RWPE-1) of the same compound?
**A.** The IC50 was 9.12 µM.

**Q.** Which “growth inhibition (GI)” value (KBM5) does the source give for `COc1ccc(NC(=O)COc2ccc(/C=C/C(=O)/C=C/c3ccc(OCC(=O)Nc4ccc(OC)cc4)c(OC)c3)cc2OC)cc1` here?
**A.** The value was 83.63%.

**Q.** What about the “growth inhibition (GI)” value (HCT-116 [11]) of the same compound?
**A.** Its value is 57.96%.

**Q.** What does the source list for `CN1CC(Cc2ccc(N(C)C)cc2[N+](=O)[O-])C(=NO)C(Cc2ccc(N(C)C)cc2[N+](=O)[O-])C1` (stereo unspecified)?
**A.** IC50 (MCF7 [17]): 0.09 µM; IC50 (A549 [8]): 0.09 µM; IC50 (HT-29 [18]): 0.05 µM; IC50 (MIA PaCa-2): 0.07 µM; IC50 (NCI-H460): 0.08 µM; IC50 (PANC-1): 0.1 µM; IC50 (PC-3 [19]): 0.08 µM
